Laboratory results taken from patent publication US20230011869A1 (Hoffmann-La Roche Inc., priority 2018, published 2023).
Counter-ions that a name gives are not always drawn.

What follows are compounds tested on Acinetobacter baumannii ATCC17961 (assay: Antimicrobial susceptibility testing: 90% growth inhibitory concentration (IC90) determination, Iso-Sensitest broth). Conditions: Acinetobacter baumannii, ATCC17961, 16 h, 90% growth inhibitory concentration, Acinetobacter baumannii ATCC17961, Iso-Sensitest broth, OD 600 nm over 16 h; read-out: ATCC17961 IC90.
Type: cell-based
Summary of the method: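 Twofold serial dilutions (e.g. 50 to 0.097 μM final) in Iso-Sensitest broth, inoculum 5×10^(5) CFU/ml, incubated at 35±2° C. OD600 read every 20 minutes over 16 h; IC90 derived from growth inhibition during logarithmic phase.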
`CCc1cc(Nc2nccn3c(-c4ccc(OC(F)F)c(F)c4F)cnc23)ccc1C(=O)N1CCC(C(=O)N2C[C@H]3C[C@@H](C2)N3)CC1` [Example 589, (4-(3,6-diazabicyclo[3.1.1]heptane-3-carbonyl)piperidin-1-yl)(4-((3-(4-(difluoromethoxy)-2,3-difluorophenyl)imidazo[1,2-a]pyrazin-8-yl)amino)-2-ethylphenyl)methanone formate] showed an IC90 of 59 nM.

Same assay, conditions: Acinetobacter baumannii, ATCC17961, 16 h, read-out: ATCC17961 IC90
`COc1cc(Nc2nccn3c(-c4ccc(OC)c(F)c4F)cnc23)ccc1C(=O)N1CCN(C(=O)C2CCNCC2)CC1` [Example 587, (4-(4-((3-(2,3-difluoro-4-methoxyphenyl)imidazo[1,2-a]pyrazin-8-yl)amino)-2-methoxybenzoyl)piperazin-1-yl)(piperidin-4-yl)methanone formate] gave an IC90 of 214 nM. `CCc1cc(Nc2nccn3c(-c4ccc(OC(F)F)c(F)c4F)cnc23)ccc1C(=O)N1CCN(C(=O)C2CCN(CC3CNC3)CC2)CC1` [Example 588, (1-(azetidin-3-ylmethyl)piperidin-4-yl)(4-(4-((3-(4-(difluoromethoxy)-2,3-difluorophenyl)imidazo[1,2-a]pyrazin-8-yl)amino)-2-ethylbenzoyl)piperazin-1-yl)methanone tris(2,2,2-trifluoroacetate)] gave an IC90 of 116 nM. Compound `CCc1cc(Nc2nccn3c(-c4ccc(OC(F)F)c(F)c4F)cnc23)ccc1C(=O)N1CCC(C(=O)NCC2CCNC2)CC1` (stereo not shown) [Example 590, 1-(4-((3-(4-(difluoromethoxy)-2,3-difluorophenyl)imidazo[1,2-a]pyrazin-8-yl)amino)-2-ethylbenzoyl)-N-(pyrrolidin-3-ylmethyl)piperidine-4-carboxamide 2,2,2-trifluoroacetate formate] has an IC90 of 30 nM. For `CCc1cc(Nc2nccn3c(-c4ccc(OC(F)F)c(F)c4F)cnc23)ccc1C(=O)N1CCC(C(=O)N2CC3(CNC3)C2)CC1` [Example 591, (4-(2,6-diazaspiro[3.3]heptane-2-carbonyl)piperidin-1-yl)(4-((3-(4-(difluoromethoxy)-2,3-difluorophenyl)imidazo[1,2-a]pyrazin-8-yl)amino)-2-ethylphenyl)methanone 2,2,2-trifluoroacetate formate], the IC90 was 52 nM. `CCc1cc(Nc2nccn3c(-c4ccc(OC(F)F)c(F)c4F)cnc23)ccc1C(=O)N1CCC(C(=O)N2C[C@@H]3C[C@H]2CN3)CC1` [Example 592, (4-((1S,4S)-2,5-diazabicyclo[2.2.1]heptane-2-carbonyl)piperidin-1-yl)(4-((3-(4-(difluoromethoxy)-2,3-difluorophenyl)imidazo[1,2-a]pyrazin-8-yl)amino)-2-ethylphenyl)methanone 2,2,2-trifluoroacetate formate] gave an IC90 of 38 nM. In the case of `CCc1cc(Nc2nccn3c(-c4ccc(OC(F)F)c(F)c4F)cnc23)ccc1C(=O)N1CCC(N)CC1` [Example 593, (4-aminopiperidin-1-yl)(4-((3-(4-(difluoromethoxy)-2,3-difluorophenyl)imidazo[1,2-a]pyrazin-8-yl)amino)-2-ethylphenyl)methanone formate], the IC90 is reported as 196 nM.
